Results published in patent US11000033B2, “Ketone or oxime compound, and herbicide” (NISSAN CHEMICAL CORPORATION, priority 2014, dated 2021).

Legend:
Assay type in all cases: in vivo
Scirpus juncoides [1] = experiment: Test Example 1: herbicidal activity, application before weed generation in submerged conditions (symbol B); settings: application herbicide amount 320 g/ha
How it was run: (§1)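 Application before weed emergence: an aqueous dilution of the emulsion formulation was poured onto the surface of 4 cm-deep floodwater on the day of sowing. Effect was judged after 3 weeks (greenhouse, 25–30 °C).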

Monochoria vaginalis = experiment: Test Example 1: herbicidal activity, application before weed generation in submerged conditions (symbol C); settings: application herbicide amount 320 g/ha
How it was run: as §1

Scirpus juncoides [2] = experiment: Test Example 2: herbicidal activity, application during weed generation in submerged conditions (symbol B); settings: Table 23; application herbicide amount 320 g/ha; grade 0-5 by criteria of Test Example 1
How it was run: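 Seeds sown in flooded alluvial soil (4 cm water) were grown in a 25-30° C greenhouse. At the one- to two-leaf stage, diluted emulsion of compound was applied to the water surface at a predetermined rate. Effect was scored 3 weeks later.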

Avena fatua = experiment: Test Example 4: herbicidal effect by soil treatment (symbol I); settings: application herbicide amount 320 g/ha
How it was run: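 Seeds were sown in sterilized diluvial soil, covered with about 1.5 cm of soil, and the soil surface was sprayed with a water-diluted emulsion of the compound at a predetermined rate. Plants grew in a greenhouse at 25° C. to 30° C.; effects were scored visually 3 weeks after application.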

corn [3] = experiment: Test Example 4: effect on crop by soil treatment (symbol c); settings: application herbicide amount 320 g/ha
How it was run: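 Sterilized diluvial soil, spot sowing, ~1.5 cm soil cover; greenhouse 25–30° C.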

rice = experiment: Test Example 4: effect on crop by soil treatment (symbol b); settings: application herbicide amount 320 g/ha
How it was run: (§2)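 Soil-treatment setup: crop and weed seeds were spot-sown into sterilized diluvial soil, then buried beneath approximately 1.5 cm of it, and the boxes were housed in a 25–30° C. greenhouse.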

rapeseed = experiment: Test Example 4: effect on crop by soil treatment (symbol g); settings: application herbicide amount 320 g/ha
How it was run: as §2

Digitaria ciliaris = experiment: Test Example 5: herbicidal effect by foliage application, plastic box (symbol F); settings: 320 g/ha, 3 weeks after application
How it was run: (§3)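 Post-emergence spray; diluvial soil (sterilized), ~1.5 cm seed cover; greenhouse 25–30° C; 14-day-old plants; water-diluted emulsion at predetermined dose; visual score at 3 wk post-treatment.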

Lolium multiflorum Lam. = experiment: Test Example 5: herbicidal effect by foliage application, plastic box (symbol K); settings: 320 g/ha, 3 weeks after application
How it was run: as §3

Veronica persica = experiment: Test Example 5: herbicidal effect by foliage application, plastic box (symbol R); settings: 320 g/ha, 3 weeks after application
How it was run: as §3

corn [4] = experiment: Test Example 5: effect on crop by foliage application, plastic box (symbol c); settings: 320 g/ha, 3 weeks after application
How it was run: (§4)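 Crop and weed seeds sown in spots in sterilized diluvial soil in plastic boxes and covered with about 1.5 cm soil. Plants raised in a greenhouse at 25° C. to 30° C. for foliar application.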

soybean = experiment: Test Example 5: effect on crop by foliage application, plastic box (symbol d); settings: 320 g/ha, 3 weeks after application
How it was run: as §4

Chenopodium album = experiment: Test Example 5: herbicidal effect by foliage application, plastic box (symbol O); settings: 320 g/ha, 3 weeks after application
How it was run: as §3

**Q.** How did the “Herbicidal effect grade, B: Scirpus juncoides” value (“Herbicidal effect grade, B” below) (Scirpus juncoides [1]) turn out when `CCc1cc(-c2ccc(Cl)cc2)cc(C)c1C1=C(OC(=O)N2CCOCC2)CC(CC(C)=NOC)C1=O` (mixture of isomers) [6-064] was run?
**A.** 0 (Herbicidal ratio of 5% or lower (almost no effect))

**Q.** And the “Herbicidal effect grade, C: Monochoria vaginalis” value (Monochoria vaginalis)?
**A.** 0 (Herbicidal ratio of 5% or lower (almost no effect))

**Q.** What about the “Herbicidal effect grade, B” value (Scirpus juncoides [2]) of the same compound?
**A.** 0 (Herbicidal ratio of 5% or lower (almost no effect))

**Q.** What about the “I: Avena fatua, herbicidal effect grade” value (Avena fatua) of the same compound?
**A.** 0 (Herbicidal ratio of 5% or lower (almost no effect))

**Q.** What about the “c: corn, effect on crop grade” value (corn [3]) of the same compound?
**A.** 0 (Herbicidal ratio of 5% or lower (almost no effect))

**Q.** And the “b: directly sowed rice plant, effect on crop grade” value (rice)?
**A.** 0 (Herbicidal ratio of 5% or lower (almost no effect))

**Q.** And the “g: rapeseed, effect on crop grade” value (rapeseed)?
**A.** 0 (Herbicidal ratio of 5% or lower (almost no effect))

**Q.** And the “F: Digitaria ciliaris, herbicidal effect (criteria of Test Example 1)” value (Digitaria ciliaris)?
**A.** 5 (Herbicidal ratio of 90% or more (almost completely withered))

**Q.** What about the “K: Lolium multiflorum Lam., herbicidal effect (criteria of Test Example 1)” value (Lolium multiflorum Lam.) of the same compound?
**A.** 5 (Herbicidal ratio of 90% or more (almost completely withered))

**Q.** And the “R: Veronica persica, herbicidal effect (criteria of Test Example 1)” value (Veronica persica)?
**A.** 4 (Herbicidal ratio of 70% or higher and lower than 90%)

**Q.** What about the “c: corn, effect on crop (criteria of Test Example 1)” value (corn [4]) of the same compound?
**A.** 5 (Herbicidal ratio of 90% or more (almost completely withered))

**Q.** What about the “d: soybean, effect on crop (criteria of Test Example 1)” value (soybean) of the same compound?
**A.** 0 (Herbicidal ratio of 5% or lower (almost no effect))

**Q.** With `CCc1cc(-c2ccc(Cl)cc2)cc(C)c1C1=C(O)CC(CC(C)=NOC)C1=O` (stereo not drawn) [6-066] as the compound, how does the “Herbicidal effect grade, B” value (Scirpus juncoides [1]) read?
**A.** 3 (Herbicidal ratio of 40% or higher and lower than 70%)

**Q.** What about the “Herbicidal effect grade, C: Monochoria vaginalis” value (Monochoria vaginalis) of the same compound?
**A.** 2 (Herbicidal ratio of 20% or higher and lower than 40%)

**Q.** What about the “Herbicidal effect grade, B” value (Scirpus juncoides [2]) of the same compound?
**A.** 0 (Herbicidal ratio of 5% or lower (almost no effect))

**Q.** And the “I: Avena fatua, herbicidal effect grade” value (Avena fatua)?
**A.** 5 (Herbicidal ratio of 90% or more (almost completely withered))

**Q.** What about the “c: corn, effect on crop grade” value (corn [3]) of the same compound?
**A.** 4 (Herbicidal ratio of 70% or higher and lower than 90%)

**Q.** And the “b: directly sowed rice plant, effect on crop grade” value (rice)?
**A.** 5 (Herbicidal ratio of 90% or more (almost completely withered))

**Q.** What about the “g: rapeseed, effect on crop grade” value (rapeseed) of the same compound?
**A.** 2 (Herbicidal ratio of 20% or higher and lower than 40%)

**Q.** And the “F: Digitaria ciliaris, herbicidal effect (criteria of Test Example 1)” value (Digitaria ciliaris)?
**A.** 5 (Herbicidal ratio of 90% or more (almost completely withered))

**Q.** And the “K: Lolium multiflorum Lam., herbicidal effect (criteria of Test Example 1)” value (Lolium multiflorum Lam.)?
**A.** 5 (Herbicidal ratio of 90% or more (almost completely withered))

**Q.** And the “O: Chenopodium album, herbicidal effect (criteria of Test Example 1)” value (Chenopodium album)?
**A.** 1 (Herbicidal ratio of 5% or higher and lower than 20%)

**Q.** And the “c: corn, effect on crop (criteria of Test Example 1)” value (corn [4])?
**A.** 5 (Herbicidal ratio of 90% or more (almost completely withered))

**Q.** What about the “d: soybean, effect on crop (criteria of Test Example 1)” value (soybean) of the same compound?
**A.** 3 (Herbicidal ratio of 40% or higher and lower than 70%)

**Q.** What does the source list for `CC(=O)CC1CC(O)=C(c2c(C)cc(Oc3ccc(C(F)(F)F)cn3)cc2C)C1=O` (stereo not drawn) [7-019]?
**A.** Herbicidal effect grade, B: Scirpus juncoides (Scirpus juncoides [1]): 0 (Herbicidal ratio of 5% or lower (almost no effect)); Herbicidal effect grade, C: Monochoria vaginalis (Monochoria vaginalis): 0 (Herbicidal ratio of 5% or lower (almost no effect)); Herbicidal effect grade, I: Avena fatua (Avena fatua): 0 (Herbicidal ratio of 5% or lower (almost no effect)); Effect on crop grade, c: corn (corn [3]): 0 (Herbicidal ratio of 5% or lower (almost no effect)); Effect on crop grade, b: directly sowed rice plant (rice): 0 (Herbicidal ratio of 5% or lower (almost no effect)); Effect on crop grade, g: rapeseed (rapeseed): 0 (Herbicidal ratio of 5% or lower (almost no effect)); F: Digitaria ciliaris, herbicidal effect (criteria of Test Example 1) (Digitaria ciliaris): 3 (Herbicidal ratio of 40% or higher and lower than 70%); K: Lolium multiflorum Lam., herbicidal effect (criteria of Test Example 1) (Lolium multiflorum Lam.): 3 (Herbicidal ratio of 40% or higher and lower than 70%); O: Chenopodium album, herbicidal effect (criteria of Test Example 1) (Chenopodium album): 0 (Herbicidal ratio of 5% or lower (almost no effect)); R: Veronica persica, herbicidal effect (criteria of Test Example 1) (Veronica persica): 0 (Herbicidal ratio of 5% or lower (almost no effect)); c: corn, effect on crop (criteria of Test Example 1) (corn [4]): 2 (Herbicidal ratio of 20% or higher and lower than 40%); d: soybean, effect on crop (criteria of Test Example 1) (soybean): 0 (Herbicidal ratio of 5% or lower (almost no effect))
